# Measured values as given in patent publication EP1605929B1, “NON-STEROIDAL ANTI-INFLAMMATORY DRUG DOSING REGIMEN” (McNeil-PPC, Inc., priority 2003, dated 2004).
# Tests used:
# [1] = Therapeutic duration of action of an effective immediate release dose, from dosing instructions in product labeling
# Description: As used herein, "ATDAIRD" shall mean the average therapeutic duration of action of an effective immediate release dose" of a particular active ingredient. For example, the typical duration of action of an immediate release dose of ibuprofen or ketoprofen is about 4 to about 6 hours. […] The therapeutic duration of action of a particular active ingredient can readily be determined from the dosing instructions in the labeling for immediate release products containing that particular active ingredient.
# [2] = system: moderate to severe post-operative dental pain; assay: PK/PD dental pain study, pain relief scores and pain intensity differences over a 12 hour observation period; format: in vivo, human
# Description: A double-blind, randomized, parallel, placebo-controlled, single center, PK/PD dental pain study was conducted over a 12 hour observation period to evaluate the pharmacokinetic, pharmacodynamic, efficacy and safety profiles of certain ibuprofen dosing regimens. Specifically, a single dose of 600 mg ibuprofen extended release caplets was compared with equivalent total doses of ibuprofen immediate release 200 mg caplets administered in three different dosing regimens as well as placebo in the treatment of moderate to severe post-operative dental pain.
# The ibuprofen was administered as ibuprofen extended release 600 mg caplets or one or more ibuprofen immediate release 200 mg caplets.
# The patients evaluated in this study consisted of male or non-pregnant and non-lactating female out-patient volunteers, 16 years of age or older, complaining of moderate to severe pain following the surgical extraction of three or four third molars with at least one partial or complete bony impacted third mandibular molar. The term impacted included: partial bony impaction, bony impaction, or complicated bony impaction. A total of 210 patients were entered into the study. 208 patients were eligible for the efficacy analyses.
# All patients who met the entrance criteria were enrolled in one of two study sub-groups. One sub-group of patients had both pharmacokinetic and pharmacodynamic evaluation (PK group). The other sub-group of patients had only the analgesic efficacy evaluations (non-PK group). A separate randomization schedule was used for each of the two sub-groups. Patients from both subgroups were assigned at random to one of the five following treatments:
# Patients' assessments of pain intensity and pain relief as well as blood samples for plasma ibuprofen analysis were obtained at the study site at hours 0, 0.25, 0.5, 1, 1.5, 2, 2.5, 3, 4, 4.5, 5, 6, 7, 8, 8.5, 9, 10, 11 and 12. A stopwatch technique was used to measure the onset of meaningful pain relief.
Structure (SMILES),ATDAIRD (average therapeutic duration of action of an effective immediate release dose) [1] [h],"pain relief ([2]; 400/200/0 administration (immediate release, 400 mg at 0 hour; 200 mg at 4 hours), entire 12 hour study period, Figure 2)","pain relief ([2]; 400/200/0 treatment (immediate release, 400 mg at 0 hour; 200 mg at 4 hours), first four hours, Figure 2)","pain relief scores ([2]; 400/200/0 treatment, 4 to 12 hour interval, no further ibuprofen after the first four hours, Figure 2)","pain intensity differences (PID) ([2]; 400/200/0 treatment, 12 hour study period, particularly after the four hour mark, Figure 3)","pain relief ([2]; 600/0/0 immediate release treatment (600 mg single dose at 0 hour), first four hours, Figure 2)"
"CC(C)Cc1ccc(C(C)C(=O)O)cc1 (centres unmarked) [ibuprofen, 2-(4-isobutylphenyl)-propionic acid]",5,excellent pain relief,superior pain relief over the other treatments,highest pain relief scores,best PID,superior pain relief over the other treatments
CC(C(=O)O)c1cccc(C(=O)c2ccccc2)c1 (centres unmarked) [ketoprofen],5,–,–,–,–,–
COc1ccc2cc([C@H](C)C(=O)O)ccc2c1 [naproxen],10,–,–,–,–,–
